Assay results as given in ChEMBL document CHEMBL1201862, “PubChem BioAssay data set” (2004).
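Exposure lasted 48 hours, with cells grown in 96-well plates and compounds tested at five concentrations. The concentration for 50% growth inhibition is given as GI50.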 Calls of active or inactive are those of the source. No stated cut-off is given here; in the data, active = GI50 up to about 1.1 µM and inactive = higher.

How the values were obtained:
Assay in all cases: NCI tumour cell line growth inhibition, 48 h
CAKI-1 = tested on: CAKI-1
EKVX = tested on: EKVX
HCT-15 = tested on: HCT-15
HL-60 = tested on: HL-60
HT-29 = tested on: HT-29
K562 = tested on: K562
LOX IMVI = tested on: LOX IMVI
Malme-3M = tested on: Malme-3M
NCI-H226 = tested on: NCI-H226
NCI-H522 = tested on: NCI-H522
OVCAR-3 = tested on: OVCAR-3
OVCAR-4 = tested on: OVCAR-4
OVCAR-5 = tested on: OVCAR-5
SF-539 = tested on: SF-539
SK-OV-3 = tested on: SK-OV-3
SN12C = tested on: SN12C
SNB-19 = tested on: SNB-19
UACC-257 = tested on: UACC-257
UO-31 = tested on: UO-31
786-0 = tested on: 786-0

| SMILES | GI50 (CAKI-1) | GI50 (EKVX) | GI50 (HCT-15) [µM] | GI50 (HL-60) | GI50 (HT-29) | GI50 (K562) | GI50 (LOX IMVI) | GI50 (Malme-3M) | GI50 (NCI-H226) | GI50 (NCI-H522) | GI50 (OVCAR-3) | GI50 (OVCAR-4) | GI50 (OVCAR-5) | GI50 (SF-539) | GI50 (SK-OV-3) | GI50 (SN12C) | GI50 (SNB-19) | GI50 (UACC-257) | GI50 (UO-31) | GI50 (786-0) |
| --- | --- | --- | --- | --- | --- | --- | --- | --- | --- | --- | --- | --- | --- | --- | --- | --- | --- | --- | --- | --- |
| Cc1ccc(N2Cc3c(ccc4ccccc34)OP2(=O)Oc2ccc(Cl)c(C)c2)cc1 (configuration not stated) | > 100 µM (inactive) | > 100 µM (inactive) | 13.8 | > 100 µM (inactive) | > 95.1 µM (inactive) | > 100 µM (inactive) | > 100 µM (inactive) | > 100 µM (inactive) | > 100 µM (inactive) | 39.9 µM (inactive) | > 31.6 µM (inactive) | > 100 µM (inactive) | > 100 µM (inactive) | > 100 µM (inactive) | > 100 µM (inactive) | > 100 µM (inactive) | > 100 µM (inactive) | > 100 µM (inactive) | 20.3 µM (inactive) | – |
| O=C1NC2OCC(O)C(O1)C2O (configuration not stated) | > 100 µM (inactive) | > 100 µM (inactive) | > 100 | > 100 µM (inactive) | > 100 µM (inactive) | > 100 µM (inactive) | > 100 µM (inactive) | > 100 µM (inactive) | > 100 µM (inactive) | > 100 µM (inactive) | > 100 µM (inactive) | > 100 µM (inactive) | > 100 µM (inactive) | > 100 µM (inactive) | > 100 µM (inactive) | > 100 µM (inactive) | > 100 µM (inactive) | > 100 µM (inactive) | > 100 µM (inactive) | > 100 µM (inactive) |
| NC(=O)c1ccccc1NC(=O)C(=O)C(c1cnc2ccc([N+](=O)[O-])cc2n1)[N+](=O)[O-] (configuration not stated) | > 100 µM (inactive) | > 100 µM (inactive) | 54.6 | > 100 µM (inactive) | > 100 µM (inactive) | > 100 µM (inactive) | 40.5 µM (inactive) | > 100 µM (inactive) | > 100 µM (inactive) | 33.3 µM (inactive) | > 100 µM (inactive) | 53.6 µM (inactive) | > 100 µM (inactive) | > 100 µM (inactive) | > 100 µM (inactive) | > 100 µM (inactive) | 79.1 µM (inactive) | > 100 µM (inactive) | 28.9 µM (inactive) | > 100 µM (inactive) |
| CCOC(=O)C(NC(=O)N(C1=NCC(C)S1)C1CCCCC1)(OC)C(F)(F)F (configuration not stated) | 34.6 µM (inactive) | 34.8 µM (inactive) | 30.1 | 30.2 µM (inactive) | 20.7 µM (inactive) | 56.9 µM (inactive) | 19.7 µM (inactive) | 45.8 µM (inactive) | 21.1 µM (inactive) | 27.7 µM (inactive) | 24.3 µM (inactive) | 40.3 µM (inactive) | > 100 µM (inactive) | 32.3 µM (inactive) | 52.4 µM (inactive) | 15.1 µM (inactive) | 49.3 µM (inactive) | 56.5 µM (inactive) | 52 µM (inactive) | 15.5 µM (inactive) |
| CC1(c2nc3ccccc3[nH]2)CCC(C#N)C(C)(C)O1 (configuration not stated) | > 100 µM (inactive) | > 100 µM (inactive) | > 100 | > 100 µM (inactive) | > 100 µM (inactive) | > 100 µM (inactive) | > 100 µM (inactive) | > 100 µM (inactive) | > 100 µM (inactive) | > 100 µM (inactive) | > 100 µM (inactive) | > 100 µM (inactive) | > 100 µM (inactive) | > 100 µM (inactive) | > 100 µM (inactive) | > 100 µM (inactive) | > 100 µM (inactive) | > 100 µM (inactive) | 36 µM (inactive) | > 100 µM (inactive) |
| N#CC1(c2nc3ccccc3o2)C(=O)C(=O)N(C2C3CC4CC(C3)CC2C4)C(=O)C1=O (configuration not stated) | > 100 µM (inactive) | > 100 µM (inactive) | > 100 | 42 µM (inactive) | > 100 µM (inactive) | > 100 µM (inactive) | > 100 µM (inactive) | > 100 µM (inactive) | > 100 µM (inactive) | > 100 µM (inactive) | > 100 µM (inactive) | > 100 µM (inactive) | > 100 µM (inactive) | > 100 µM (inactive) | > 100 µM (inactive) | > 100 µM (inactive) | > 100 µM (inactive) | > 100 µM (inactive) | > 100 µM (inactive) | > 100 µM (inactive) |
| COC(=O)Cc1c([C@H]2[C@H](CC(=O)OC)c3ccccc3N2C(=O)C(F)(F)F)[nH]c2ccccc12 | 41.3 µM (inactive) | 26.8 µM (inactive) | 8.18 | 40.3 µM (inactive) | 29.3 µM (inactive) | 11.1 µM (inactive) | 26.4 µM (inactive) | 29.9 µM (inactive) | 2 µM (inactive) | 12 µM (inactive) | 15.9 µM (inactive) | 56.6 µM (inactive) | 18.9 µM (inactive) | 29.5 µM (inactive) | 28.5 µM (inactive) | 46.1 µM (inactive) | 54.3 µM (inactive) | 29.1 µM (inactive) | 33.6 µM (inactive) | > 100 µM (inactive) |
| S=P1(N2CCCCC2)Oc2ccc3ccccc3c2-c2c(ccc3ccccc23)O1 | > 44.6 µM (inactive) | > 53.5 µM (inactive) | 63.7 | > 100 µM (inactive) | > 76.2 µM (inactive) | 85.7 µM (inactive) | 60.4 µM (inactive) | > 46 µM (inactive) | > 54.2 µM (inactive) | 37.8 µM (inactive) | 34.9 µM (inactive) | 27.5 µM (inactive) | > 100 µM (inactive) | 71.1 µM (inactive) | > 92.5 µM (inactive) | > 100 µM (inactive) | > 100 µM (inactive) | > 100 µM (inactive) | > 80.7 µM (inactive) | – |
| C=C1CC(C)(COc2ccc3c(C)c(C)c(=O)oc3c2C)OC1=O (configuration not stated) | 1.7 µM (inactive) | 5.52 µM (inactive) | 1.56 | 0.19 µM (active) | 2.17 µM (inactive) | 0.811 µM (active) | 1.2 µM (inactive) | 1.39 µM (inactive) | 13.7 µM (inactive) | 1.56 µM (inactive) | 3.3 µM (inactive) | 4.3 µM (inactive) | 6.27 µM (inactive) | 2.24 µM (inactive) | 3.05 µM (inactive) | 2.04 µM (inactive) | 13.4 µM (inactive) | 2.09 µM (inactive) | 9.18 µM (inactive) | 1.4 µM (inactive) |
| COc1ccc(N(C)C(=O)N(C)c2ccc([N+](=O)[O-])cc2)cc1 | 41.6 µM (inactive) | 65.2 µM (inactive) | 30.1 | 31 µM (inactive) | 28.6 µM (inactive) | 18.4 µM (inactive) | 33.1 µM (inactive) | 36.2 µM (inactive) | 23 µM (inactive) | 23.8 µM (inactive) | 26.7 µM (inactive) | 11.2 µM (inactive) | 39.9 µM (inactive) | 29.6 µM (inactive) | 17.7 µM (inactive) | 61.4 µM (inactive) | > 100 µM (inactive) | 26.1 µM (inactive) | 41.4 µM (inactive) | 58.9 µM (inactive) |
| CCOc1ccc(NC(=O)C(=O)CC(=O)c2c(C)[n+]([O-])c3ccccc3[n+]2[O-])cc1 | > 100 µM (inactive) | > 100 µM (inactive) | > 100 | > 100 µM (inactive) | > 100 µM (inactive) | > 100 µM (inactive) | > 100 µM (inactive) | > 100 µM (inactive) | > 100 µM (inactive) | > 100 µM (inactive) | > 100 µM (inactive) | > 100 µM (inactive) | > 100 µM (inactive) | > 100 µM (inactive) | > 100 µM (inactive) | > 100 µM (inactive) | > 100 µM (inactive) | > 100 µM (inactive) | > 100 µM (inactive) | > 100 µM (inactive) |
| COc1ccc(OC)c(/C=C/NC=O)c1 | > 100 µM (inactive) | > 100 µM (inactive) | > 100 | > 100 µM (inactive) | > 100 µM (inactive) | > 100 µM (inactive) | > 100 µM (inactive) | > 100 µM (inactive) | > 100 µM (inactive) | > 100 µM (inactive) | > 100 µM (inactive) | > 100 µM (inactive) | > 100 µM (inactive) | > 100 µM (inactive) | > 100 µM (inactive) | > 100 µM (inactive) | > 100 µM (inactive) | > 100 µM (inactive) | > 100 µM (inactive) | > 100 µM (inactive) |
| O=c1[nH]nc(-c2ccccc2)n1/N=C/c1ccccc1Cl | 36.6 µM (inactive) | 45.9 µM (inactive) | 31.6 | 19.5 µM (inactive) | 28.9 µM (inactive) | 31.3 µM (inactive) | 25.1 µM (inactive) | 20.3 µM (inactive) | 30.8 µM (inactive) | 18 µM (inactive) | 23.8 µM (inactive) | 15.2 µM (inactive) | > 100 µM (inactive) | 39.3 µM (inactive) | 48.8 µM (inactive) | 48.8 µM (inactive) | > 100 µM (inactive) | 64 µM (inactive) | 42.8 µM (inactive) | 32.5 µM (inactive) |
| C(=C/c1nc2ccccc2o1)/c1ccc2c(c1)OCO2 | 9.82 µM (inactive) | 55.5 µM (inactive) | 8.18 | 16.8 µM (inactive) | 12.8 µM (inactive) | 5.22 µM (inactive) | 6.59 µM (inactive) | 27.3 µM (inactive) | 18 µM (inactive) | 7.74 µM (inactive) | 12.1 µM (inactive) | 13.1 µM (inactive) | > 36.6 µM (inactive) | 16.6 µM (inactive) | 27.2 µM (inactive) | 58.6 µM (inactive) | 16.1 µM (inactive) | 12.7 µM (inactive) | 17 µM (inactive) | – |
